Assay results: ChEMBL document CHEMBL1135290, “Synthesis of sub-micromolar inhibitors of MraY by exploring the region originally occupied by the diazepanone ring in the liposidomycin structure” (Bioorg Med Chem Lett, 2002)
pIC50: −log10 of the molar value.

How the values were obtained:
Enterococcus faecium = assay: Tested in vitro for antibacterial activity against Enterococcus faecium using micro-broth dilution method; assay type: functional
Escherichia coli = assay: Tested in vitro for antibacterial activity against Escherichia coli using micro-broth dilution method; assay type: functional
Staphylococcus aureus = assay: Tested in vitro for antibacterial activity against Staphylococcus aureus using micro-broth dilution method; assay type: functional
Streptococcus pyogenes = assay: Tested in vitro for antibacterial activity against Streptococcus pyogenes using micro-broth dilution method; assay type: functional
[1] = Inhibitory activity against Translocase I

Compound	MIC (Enterococcus faecium) [µg/mL]	MIC (Escherichia coli) [µg/mL]	MIC (Staphylococcus aureus) [µg/mL]	MIC (Streptococcus pyogenes) [µg/mL]	pIC50 [1]
CCCCCCCCNC[C@H](O[C@@H]1O[C@H](CN)[C@@H](O)[C@H]1O)[C@@H]1C[C@@H](O)[C@H](n2ccc(=O)[nH]c2=O)O1.O=C(O)C(F)(F)F	80	> 80	> 80	> 80	6.09
NC[C@H]1O[C@@H](O[C@@H](CNC(=O)c2ccc(OCc3ccccc3)cc2)[C@@H]2C[C@@H](O)[C@H](n3ccc(=O)[nH]c3=O)O2)[C@H](O)[C@@H]1O	–	–	–	–	6.49
CN(Cc1ccccc1)C[C@H](O[C@@H]1O[C@H](CN)[C@@H](O)[C@H]1O)[C@@H]1C[C@@H](O)[C@H](n2ccc(=O)[nH]c2=O)O1	–	–	–	–	5.16
CCCCCCCCCCNC[C@H](O[C@@H]1O[C@H](CN)[C@@H](O)[C@H]1O)[C@@H]1C[C@@H](O)[C@H](n2ccc(=O)[nH]c2=O)O1.O=C(O)C(F)(F)F	80	40	40	20	6.48
CCN(CC)CCN1CCN(C[C@H](O[C@@H]2O[C@H](CN)[C@@H](O)[C@H]2O)[C@@H]2C[C@@H](O)[C@H](n3ccc(=O)[nH]c3=O)O2)CC1	–	–	–	–	5.74
CCCCCNC[C@H](O[C@@H]1O[C@H](CN)[C@@H](O)[C@H]1O)[C@@H]1C[C@@H](O)[C@H](n2ccc(=O)[nH]c2=O)O1.O=C(O)C(F)(F)F	> 80	> 80	> 80	> 80	6.05
NC[C@H]1O[C@@H](O[C@@H](CNC(=O)c2cccc(Oc3ccccc3)c2)[C@@H]2C[C@@H](O)[C@H](n3ccc(=O)[nH]c3=O)O2)[C@H](O)[C@@H]1O	–	–	–	–	6.36
CCCCCCCCCCCCNC[C@H](O[C@@H]1O[C@H](CN)[C@@H](O)[C@H]1O)[C@@H]1C[C@@H](O)[C@H](n2ccc(=O)[nH]c2=O)O1.O=C(O)C(F)(F)F	20	2.5	5	2.5	6.15
NC[C@H]1O[C@@H](O[C@@H](CNCCc2c[nH]c3ccccc23)[C@@H]2C[C@@H](O)[C@H](n3ccc(=O)[nH]c3=O)O2)[C@H](O)[C@@H]1O	–	–	–	–	5.54
CCCCCCCCCCCCCCNC[C@H](O[C@@H]1O[C@H](CN)[C@@H](O)[C@H]1O)[C@@H]1C[C@@H](O)[C@H](n2ccc(=O)[nH]c2=O)O1.O=C(O)C(F)(F)F	10	2.5	2.5	2.5	6.23
CC(=O)N[C@H]1[C@@H](O[C@@H]2O[C@H](CC(O)[C@H]3O[C@@H](n4ccc(=O)[nH]c4=O)[C@H](O)[C@@H]3O)[C@H](O)[C@H](O)[C@H]2NC(=O)/C=C/CC(C)C)O[C@H](CO)[C@@H](N)[C@@H]1O (some centres not stated) [TUNICAMYCIN]	–	–	–	–	6.32

Further lines, results first:

MIC (Enterococcus faecium) [µg/mL]	MIC (Escherichia coli) [µg/mL]	MIC (Staphylococcus aureus) [µg/mL]	MIC (Streptococcus pyogenes) [µg/mL]	pIC50 [1]	Compound
–	–	–	–	4.85	NC[C@H]1O[C@@H](O[C@@H](CNC(=O)c2ccccc2)[C@@H]2C[C@@H](O)[C@H](n3ccc(=O)[nH]c3=O)O2)[C@H](O)[C@@H]1O
–	–	–	–	5.36	COC(=O)C1CCN(C[C@H](O[C@@H]2O[C@H](CN)[C@@H](O)[C@H]2O)[C@@H]2C[C@@H](O)[C@H](n3ccc(=O)[nH]c3=O)O2)CC1
–	–	–	–	6.74	NC[C@H]1O[C@@H](O[C@@H](CNc2ccc(C3CCCCC3)cc2)[C@@H]2C[C@@H](O)[C@H](n3ccc(=O)[nH]c3=O)O2)[C@H](O)[C@@H]1O
–	–	–	–	6.36	NC[C@H]1O[C@@H](O[C@@H](CNC(=O)c2ccc(Br)cc2)[C@@H]2C[C@@H](O)[C@H](n3ccc(=O)[nH]c3=O)O2)[C@H](O)[C@@H]1O
–	–	–	–	5.34	NC[C@H]1O[C@@H](O[C@@H](CNCCc2ccncc2)[C@@H]2C[C@@H](O)[C@H](n3ccc(=O)[nH]c3=O)O2)[C@H](O)[C@@H]1O
–	–	–	–	5.85	COc1ccc(CN(C)C[C@H](O[C@@H]2O[C@H](CN)[C@@H](O)[C@H]2O)[C@@H]2C[C@@H](O)[C@H](n3ccc(=O)[nH]c3=O)O2)cc1
